Source: patent US20240109848A1, “PROCESS FOR THE PREPARATION OF IMIDAZOBENZODIAZEPINES” (ODH IP Corp., priority 2022, published 2024)

What was measured:
[1] = LC-MS analysis of the TGA samples for thermal isomerization to isomidazolam; format: physicochemical; details: LC-MS of sample after TGA at 200° C. for 50 minutes
[2] = for weight remaining of starting sample (TGA): heated at 200° C. for 50 minutes
Protocol: To test the stable ion-pair hypothesis, TGA of PTSA, midazolam, and their combined salt pair were heated at 200° C. for 50 minutes and their decomposition rates were compared (FIG. 13).

[3] = pH titration of the carboxylate with mother liquor analysis (solubility versus pH); format: physicochemical; details: pH values below 1, methanol/KOH saponification mixture titrated with acid
Protocol: Saponification of midazolam ethyl ester to the carboxylic acid was performed both in batch and flow, but poor solubility limited the throughput of a continuous manufacturing approach. Therefore, the reaction was run as a batch in a methanol/KOH solution. Much of the R&D on this process step revolved around the reactive crystallization of the carboxylic acid product. […] An initial screen was performed by titrating a batch of the carboxylate and analyzing the mother liquor at decreasing pH values to determine the pH value with the highest yield (FIG. 10).
The titration experiment determined that pH 5.5-6.0 would provide the highest yielding crystallization. At pH values lower than this, the solubility of the product increases again until it is fully soluble at pH values below 1. […] This was an attractive development as the ring open form had been previously reported to provide a purer decarboxylation. The ring quickly closes in neutral solvent, and the diastereomeric methylene resonances appear clearly between 4-6 ppm. […] To test this hypothesis, we performed […] batch reactions and crystallization at pH 1, and 5.5. The solid products were characterized by thermogravimetric analysis and ^1H NMR spectroscopy (FIGS. 11A and 11B).

Row | Compound | isomidazolam formed in TGA sample [1] | weight remaining of starting sample (TGA) [2] | solubility of the product [3] | weight remaining (TGA) ([2]; heated at 200° C., within 40 minutes of heating)
1 | 8-chloro-6-(2-fluorophenyl)-1-methyl-4H-imidazo[1,5-a][1,4]benzodiazopine [Midazolam, reference compound] | 12 % LCAP | 65 weight % | – | –
2 | Cc1nc(C(=O)O)c2n1-c1ccc(Cl)cc1C(c1ccccc1F)=NC2 [Midazolam carboxylic acid, 8-chloro-6-(2-fluorophenyl)-1-methyl-4H-imidazo[1,5-a][1,4]benzodiazopine-3-carboxylic acid] | – | – | fully soluble | –
3 | Cc1ccc(S(=O)(=O)O)cc1 [PTSA, para-toluenesulfonic acid] | – | – | – | ~10 weight %
4 | Cc1ccc(S(=O)(=O)O)cc1.Cc1ncc2n1-c1ccc(Cl)cc1C(c1ccccc1F)=NC2 [midazolam:PTSA pair] | 1 % LCAP | 90 weight % | – | –
